Data on one compound can be found in patent publication US9642835B2, “Modulators of GTPase and use in relevant treatment” (STC.UNM, priority 2010, dated 2017).

One assay addresses Cdc42 ACT (Cdc42Q61L) (Homo sapiens, UniProt P60953, Q61L). In words: Bead-based flow cytometry dose response, BODIPY-FL-GTP binding. The following applies: in the presence of Mg ions; read-out: EC50 for Cdc42(Q61L). As to the method:
(§1) Bead sets for multiplex assays were custom synthesized by Duke Scientific Corp (Fremont, Calif.), but may now be ordered from Thermo/Fisher. […] Negative controls, contained the bead mixture with fluorescent GTP, 0.5 mM unlabeled GTP as a competitor, and 1% DMSO. […] The resulting time-dependent data (one file per plate) were analyzed using IDLQuery software to determine the compound activity in each well. Gating based on forward scatter (FS) and side scatter (SS) parameters was used to identify singlet bead populations. Gating based on FL8 emission distinguishes the beads coated with different proteins, and the median fluorescence per bead population was calculated. […] Baselines were set to 100% based on measurements from the 1% DMSO containing positive controls as further described in PubChem. {PubChem #72}
(§2) Briefly, compounds were serially diluted 1:3 a total of eight times from a starting concentration of 10 mM giving a 9-point dilution series in DMSO. The final concentrations of inhibitors in the assay ranged from 10 nM to 100 μM. Dose-response analyses were examined in the presence of NP-HPS buffer containing: a) 1 mM EDTA; or b) 1 mM MgCl2. […] For assays with EDTA we used one multiplex (Rab7 wt, Rab2 wt, H-Ras wt, H-RasG12V, Cdc42 wt, and Cdc42Q61L) and 3 single-plexes (for Rac1 wt, Rac1 Q61L and GST-GFP).
(§3) GTPase activators were identified on the basis of an increase in fluorescent GTP-binding.
(§4) In experiments including magnesium, six GST-GTPases were assayed simultaneously in a single multiplex (Rac1 wt, Rac1Q61L, RhoA wt, RhoAL63, Cdc42 wt and Cdc42Q61L) and 1 nM BODIPY-FL-GTP binding was measured in the presence or absence of the serial drug dilution series. Each dose response series was run in duplicate.

The target of another assay is T1, Cdc42 WT (Homo sapiens, UniProt P60953).
T1 construct: purchased Cytoskeleton
T1 sequence (P60953 whole entry): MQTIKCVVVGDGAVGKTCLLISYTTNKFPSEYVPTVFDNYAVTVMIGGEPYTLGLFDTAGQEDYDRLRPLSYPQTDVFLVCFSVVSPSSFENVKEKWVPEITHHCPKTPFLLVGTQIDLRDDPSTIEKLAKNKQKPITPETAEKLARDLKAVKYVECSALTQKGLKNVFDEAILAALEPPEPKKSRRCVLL
The description is as above. The following applies: in the presence of Mg ions; read-out: EC50 for Cdc42 wt. The procedure:
as §1, §2, §3, §4

Cdc42 ACT (Cdc42Q61L), sequence (P60953 whole entry Q61L): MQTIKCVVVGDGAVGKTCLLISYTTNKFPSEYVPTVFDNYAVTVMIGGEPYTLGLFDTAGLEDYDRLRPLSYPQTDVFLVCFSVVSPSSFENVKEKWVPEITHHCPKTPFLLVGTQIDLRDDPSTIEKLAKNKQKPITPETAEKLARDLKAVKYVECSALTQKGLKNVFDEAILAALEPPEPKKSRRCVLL

Regarding `COc1ccc(C2CC(c3ccccc3)=NN2c2ccc(S(N)(=O)=O)cc2)cc1` (centres unmarked) [MLS000693334, 4-[3-(4-methoxyphenyl)-5-phenyl-3,4-dihydropyrazol-2-yl]benzenesulfonamide], the EC50 on Cdc42 ACT (Cdc42Q61L) and at Cdc42 WT was ~4 µM throughout.
